# Where two headings read alike, the source gives them in different places.
# Experiments:
# FolR1 + Igrov1 Cells = experiment: In vitro cytotoxicity (Cell Titer-Glo, 120 hrs) on Igrov1 cells; format: cell-based
# Description: (§1) FOLR1-positive KB or Igrov1 cells, FOLR1-negative A549 cells, Her2 positive SKBR3 cells and Her2 negative MDA-MB-468 cells, Muc16-positive OVCAR3 and Mucl6-negative Skov3 were maintained in Ham's F-12: high glucose DMEM (50:50) (Corning) supplemented with 10% heat-inactivated fetal bovine serum (Corning), 1% Penicillin/Streptomycin (Corning) and 2 mmol/L-glutamax (Thermo Fisher Scientific). Adherent cells were washed twice with PBS, harvested with Acutase and counted by the Vi-CELL cell viability analyzer. A total of 625 cells were seeded in each well of a 384-well flat bottom white polystyrene plate. ADC, ISAC, and iADC conjugates were formulated at 2-fold starting concentration in the cell culture medium and filtered through MultiScreenHTS 96-Well Filter Plates (Millipore; Billerica, Mass.). Serial dilutions of test samples (1:3 serial dilution starting from 100 nM) was added into treatment wells. Assay plates were cultured at 37° C. in a CO2 incubator for 120 hrs before assay. For cell viability measurement, 30 μL of Cell Titer-Glo® reagent (Promega Corp. Madison, Wis.) was added into each well, and plates were processed as per product instructions. Relative luminescence was measured on an ENVISION® plate reader (Perkin-Elmer; Waltham, Mass.). Relative luminescence readings were converted to percent viability using untreated cells as controls. […]
# Skov3 (Muc16−) = experiment: In vitro cytotoxicity (Cell Titer-Glo, 120 hrs) on Skov3 cells; format: cell-based; conditions: Homo sapiens, SK-OV-3, Table 7, Experiment #2, read-out: Cell Killing on Skov3 (Muc16−) EC50
# Description: as §1
# MDA-MB-468 (Her2-) = experiment: In vitro cytotoxicity (Cell Titer-Glo, 120 hrs) on MDA-MB-468 cells; format: cell-based; conditions: Homo sapiens, Table 6, Experiment #2, read-out: Cell Killing on MDA-MB-468 (Her2-) EC50
# Description: as §1
# SKBR3 (Her2+) = experiment: In vitro cytotoxicity (Cell Titer-Glo, 120 hrs) on SKBR3 cells; format: cell-based; conditions: Homo sapiens, SK-BR-3, Table 6, Experiment #2, read-out: Cell Killing on SKBR3 (Her2+) EC50
# Description: as §1
# B cells = experiment: Immune cell activation in PBMCs with KB cells: B cells (CD86 on CD14-/Lin+/HLA-DR+ cells); format: cell-based, human; conditions: Example 29; PBMCs from two donors with KB cells, two days
# Method: (§2) This example evaluates the ability of three homogeneous iADCs to stimulate the activation of different immune cell populations (monocyte, B cell, and DCs). Free TLR7 agonists, free hemiasterlin warhead, anti-FolRα-ADC, and the corresponding ISACs were used as controls in the experiment. PBMCs from two healthy donors were isolated using similar protocol as descripted in previous examples. PBMCs were treated with three homogeneous iADC and controls in the presence of FolR1 positive KB cells for two days. The immune cells were then stained with different cell population markers and activation markers. Monocyte activation was indicated as increase of CD86 expression on CD14+ cells. B cell activation was indicated as increase of CD86 expression on CD14-/Lin+/HLA-DR+ cells. Dendritic cells (DC) activation was indicated as increase of CD86 expression on CD14-/Lin-/HLA-DR+/CD123+ cells.
# Dendritic cells (DC) = experiment: Immune cell activation in PBMCs with KB cells: DCs (CD86 on CD14-/Lin-/HLA-DR+/CD123+ cells); format: cell-based, human; conditions: Example 29; PBMCs from two donors with KB cells, two days
# Method: as §2
# monocytes = experiment: Immune cell activation in PBMCs with KB cells: monocytes (CD86 on CD14+ cells); format: cell-based, human; conditions: Example 29; PBMCs from two donors with KB cells, two days
# Method: as §2
# A549 (FolR1−) = experiment: In vitro cytotoxicity (Cell Titer-Glo, 120 hrs) on A549 cells; format: cell-based; conditions: Homo sapiens, Table 21, Example 28, homogeneous iADCs
# Description: as §1
# KB (FolR1+) = experiment: In vitro cytotoxicity (Cell Titer-Glo, 120 hrs) on KB cells; format: cell-based; conditions: Homo sapiens, Table 21, Example 28, homogeneous iADCs
# Description: as §1
# monocytes in human PBMCs = experiment: Monocyte activation (% CD86+ within CD14+) in isolated monocytes or PBMCs co-cultured with FolR1 positive KB cells; format: cell-based; conditions: 48 hr co-culture with FolR1 positive KB cells
# Method: PBMCs were isolated from human blood donors by Leukosep tube and Nycoprep 1.077 buffer according to the manufacture's recommendation. CD14+ monocytes were isolated by immunomagnetic negative selection from fresh PBMCs (StemCell #19359—EasySep Human Monocyte Isolation Kit). PBMCs and monocytes were cultured in RPMI supplemented with 10% heat-inactivated fetal bovine serum from Hyclone, 1% Penicillin/Streptomycin and 2 mmol/L-glutamax before the assay. On the day of assay, 300,000 of PBMC or 30,000 of monocytes in 40 ul of culture medium were seeded in 96-well cell culture plates. 40 ul of the test articles (formulated at 3× of starting concentration, 1:10 serial dilution) and 40 ul of 10,000 Oregon green stained target cells were then added into the well. The cell mixtures were co-cultured in the presence of test articles and 10 ug/ml LPS-RS for 48 hr. […] Cells were washed, fixed with 2% PFA overnight, and read on the Attune NxT cytometer (Thermo Fisher). […]
# PBMCs were isolated from human blood donors by Leukosep tube and Nycoprep 1.077 buffer according to the manufacture's recommendation. […] Cells were washed, fixed with 2% PFA overnight, and read on the Attune NxT cytometer (Thermo Fisher). […]
compound,measurement,setting,value
CCCCc1nc2c(N)nc3ccccc3c2n1Cc1ccc(CN)cc1 [Compound 4],EC50,"FolR1 + Igrov1 Cells; Homo sapiens, IGROV-1, 120 h, read-out: Cell Killing on FolR1 + Igrov1 Cells EC50",> 100 nM
same,EC50,Skov3 (Muc16−),> 100 nM
same,EC50,MDA-MB-468 (Her2-),> 100 nM
same,EC50,SKBR3 (Her2+),> 100 nM
CCCCc1nc2c(N)nc3ccccc3c2n1OCCCCN [Compound 5],EC50,"FolR1 + Igrov1 Cells; Experiment #1, 120 hrs, NK = no cell killing detected",> 100 nM
"CCCCCNc1nc(N)nc2ccn(Cc3ccc(CN4CC5(CNCCO5)C4)cc3OC)c12 [Compound 7, 5-(4-((5-oxa-2,8-diazaspiro[3.5]nonan-2-yl)methyl)-2-methoxybenzyl)-N4-pentyl-5H-pyrrolo[3,2-d]pyrimidine-2,4-diamine]","activation of B cells, in words",B cells,much more potent
same,"activation of DCs, in words",Dendritic cells (DC),much more potent
same,"activation of monocytes, in words",monocytes,much more potent
same,EC50,A549 (FolR1−),> 100 nM
same,EC50,KB (FolR1+),> 100 nM
CCCCc1nc2c(N)nc3ccccc3c2n1Cc1ccc(CNC(=O)OCc2ccc(NC(=O)[C@H](CCCNC(N)=O)NC(=O)[C@@H](NC(=O)CCOCCOCCOCCOCCNC(=O)CCC(=O)N3Cc4ccccc4C#Cc4ccccc43)C(C)C)cc2)cc1 [Compound 401],"monocyte activation, in words",monocytes in human PBMCs,activated monocyte

# Reference: US11744876B2, “Immunomodulator antibody drug conjugates and uses thereof” (Sutro Biopharma, Inc., priority 2019, dated 2023)
